Measurements taken from US11339419B2, “Scavenger protein(s) for improved preservation of analyte detection sensor(s) and method(s) of use thereof” (Siemens Healthcare Diagnostics Inc., priority 2017, dated 2022).
Where “and” joins values, the source holds several entries; their conditions need not be identical. Equal values may be shown once.

Legend:
[1] = system: creatininase (BBI Solutions); assay: BBI Solutions Creatininase Enzyme Absorbance with BSA and MIT; format: biochemical; details: days 4 and 14; with MIT
Method: Table 5-8 depict aqueous solutions comprising varying concentrations of BSA (at concentrations of 0 mg/mL, 5 mg/mL, 25 mg/mL, and 50 mg/mL), varying concentrations of MIT (at concentrations of 50 parts per million and 100 parts per million) or Proclin™ 300 (at concentrations of 0.7% and 1.4%) biocide over a particular time period (measurements were taken at days 0, 4, and 14 after exposure of the enzyme(s) to the particular aqueous solutions) and the associated enzyme absorbance measurements for creatininase (commercially offered for sale by BBI Solutions and Toyobo). Absorbance measurements of the creatininase enzyme(s) were taken via spectrophotometer for each aqueous solution (represented as columns 1-5 in Tables 5-8—column 6 is a blank), the absorbance being directly proportional to the enzyme activity being measured-which for Tables 5-8 is creatininase enzyme activity. Accordingly, the higher the absorbance measurement, the higher the enzyme activity of creatininase. Columns 7-11 represent five replicate readings in which the solution only contains BSA (i.e., there is no biocide(s) present in the solution). In addition, the mean values, standard deviations, and coefficients of variation are all presented for the enzyme activity/absorbance of each aqueous solution. All measurements were taken at 37° C.
As depicted in Table 5, creatininase (commercially offered for sale by BBI Solutions) enzyme activity is measured against various concentrations of MIT (biocide) and BSA (scavenger protein) over a period of 14 days (with absorbance measurement taken at 0, 4, and 14 days) for five different aqueous solutions (represented as columns 1-5—column 6 is a blank).

[2] = system: sarcosine oxidase (Toyobo); assay: Toyobo Sarcosine Oxidase Enzyme Absorbance with BSA and MIT; format: biochemical; details: for Sarcosine Oxidase Enzyme Absorbance, MEAN of 7-11 / Sarcosine Oxidase Enzyme Absorbance, replicates 7-11 / Sarcosine Oxidase Enzyme Absorbance, MEAN of 1-5 / Sarcosine Oxidase Enzyme Absorbance, solutions 1-5: 37° C.
Method: Tables 1-4 depict aqueous solutions comprising varying concentrations of BSA (at concentrations of 0 mg/mL, 5 mg/mL, 25 mg/mL, and 50 mg/mL), varying concentrations of MIT (at concentrations of 50 parts per million and 100 parts per million) or Proclin™ 300 (at concentrations of 0.7% and 1.4%) biocides over a particular time period (measurements were taken at days 0, 4, and 14 after exposure of the enzyme(s) to the aqueous solutions) and the associated enzyme absorbance measurements for sarcosine oxidase (commercially offered for sale by BBI Solutions and Toyobo). Absorbance measurements of the sarcosine oxidase enzyme(s) were taken via spectrophotometer for each aqueous solution (represented as columns 1-5 in Tables 1-4—column 6 is a blank), the absorbance being directly proportional to the enzyme activity being measured-which for Tables 1-4 is sarcosine oxidase enzyme activity. Accordingly, the higher the absorbance measurement, the higher the enzyme activity of sarcosine oxidase. Columns 7-11 represent five replicate readings in which the aqueous solution only contains BSA (i.e., there is no biocide(s) present in the aqueous solution). In addition, the mean values, standard deviations, and coefficients of variation are also presented for the enzyme activity/absorbance of each aqueous solution. All measurements were taken at 37° C.
As depicted below in Table 2, sarcosine oxidase (commercially offered for sale by Toyobo) enzyme activity is measured against various concentrations of MIT (biocide) and BSA (scavenger protein) over a period of 14 days (with absorbance measurements taken at 0, 4, and 14 days) for five different aqueous solutions (represented as columns 1-5-column 6 is a blank).

[3] = Day 0, 5 mg/mL BSA only, no MIT (50 ppm MIT row)
[4] = Day 0, 5 mg/mL BSA only, no MIT (100 ppm MIT row)
[5] = Day 0, 25 mg/mL BSA only, no MIT (50 ppm MIT row)
[6] = Day 0, 25 mg/mL BSA only, no MIT (100 ppm MIT row)
[7] = Day 0, 50 mg/mL BSA only, no MIT (50 ppm MIT row)
[8] = Day 0, 50 mg/mL BSA only, no MIT (100 ppm MIT row)
[9] = Day 0, 50 ppm MIT, 25 mg/mL BSA
[10] = Day 0, 50 ppm MIT, 50 mg/mL BSA
[11] = Day 4, 5 mg/mL BSA only, no MIT (50 ppm MIT row)
[12] = Day 4, 5 mg/mL BSA only, no MIT (100 ppm MIT row)
[13] = Day 4, 25 mg/mL BSA only, no MIT (50 ppm MIT row)
[14] = Day 4, 25 mg/mL BSA only, no MIT (100 ppm MIT row)
[15] = Day 4, 50 mg/mL BSA only, no MIT (50 ppm MIT row)
[16] = Day 4, 50 mg/mL BSA only, no MIT (100 ppm MIT row)
[17] = Day 14, 5 mg/mL BSA only, no MIT (50 ppm MIT row)
[18] = Day 14, 5 mg/mL BSA only, no MIT (100 ppm MIT row)
[19] = Day 14, 25 mg/mL BSA only, no MIT (50 ppm MIT row)
[20] = Day 14, 25 mg/mL BSA only, no MIT (100 ppm MIT row)
[21] = Day 14, 50 mg/mL BSA only, no MIT (50 ppm MIT row)
[22] = Day 14, 50 mg/mL BSA only, no MIT (100 ppm MIT row)

bovine serum albumin [BSA]
BSA concentration at which the creatininase absorbance measurement is highest [1]: 5 mg/mL | Sarcosine Oxidase Enzyme Absorbance, MEAN of 7-11 [2, 3]: 1.41 | Sarcosine Oxidase Enzyme Absorbance, replicates 7-11 [2, 3]: 1.444 and 1.45 and 1.459 and 1.485 and 1.463 | Sarcosine Oxidase Enzyme Absorbance, MEAN of 7-11 [2, 4]: 1.39 | Sarcosine Oxidase Enzyme Absorbance, replicates 7-11 [2, 4]: 1.459 and 1.421 and 1.427 and 1.439 and 1.436 | Sarcosine Oxidase Enzyme Absorbance, MEAN of 7-11 [2, 5]: 1.40 | Sarcosine Oxidase Enzyme Absorbance, replicates 7-11 [2, 5]: 1.448 and 1.453 and 1.45 and 1.442 and 1.444 | Sarcosine Oxidase Enzyme Absorbance, MEAN of 7-11 [2, 6]: 1.38 | Sarcosine Oxidase Enzyme Absorbance, replicates 7-11 [2, 6]: 1.447 and 1.422 and 1.418 and 1.443 and 1.413 | Sarcosine Oxidase Enzyme Absorbance, MEAN of 7-11 [2, 7]: 1.35 | Sarcosine Oxidase Enzyme Absorbance, replicates 7-11 [2, 7]: 1.387 and 1.402 and 1.388 and 1.408 and 1.406 | Sarcosine Oxidase Enzyme Absorbance, MEAN of 7-11 [2, 8]: 1.38 | Sarcosine Oxidase Enzyme Absorbance, replicates 7-11 [2, 8]: 1.437 and 1.434 and 1.424 and 1.423 and 1.416 | % Bias ([2]; Day 0, 50 ppm MIT vs no MIT, 5 mg/mL BSA): −0.3% | % Bias ([2]; Day 0, 50 ppm MIT vs no MIT, 25 mg/mL BSA): −1.0% | % Bias ([2]; Day 0, 50 ppm MIT vs no MIT, 50 mg/mL BSA): 2.4% | Sarcosine Oxidase Enzyme Absorbance, MEAN of 1-5 ([2]; Day 0, 50 ppm MIT, 5 mg/mL BSA): 1.41 | Sarcosine Oxidase Enzyme Absorbance, solutions 1-5 ([2]; Day 0, 50 ppm MIT, 5 mg/mL BSA): 1.445 and 1.446 and 1.443 and 1.456 and 1.457 | Sarcosine Oxidase Enzyme Absorbance, MEAN of 1-5 [2, 9]: 1.39 | Sarcosine Oxidase Enzyme Absorbance, solutions 1-5 [2, 9]: 1.432 and 1.423 and 1.425 and 1.431 and 1.427 | Sarcosine Oxidase Enzyme Absorbance, MEAN of 1-5 [2, 10]: 1.39 | Sarcosine Oxidase Enzyme Absorbance, solutions 1-5 [2, 10]: 1.439 and 1.435 and 1.441 | % Bias ([2]; Day 0, 100 ppm MIT vs no MIT, 5 mg/mL BSA): 0.3% | % Bias ([2]; Day 0, 100 ppm MIT vs no MIT, 25 mg/mL BSA): −0.7% | % Bias ([2]; Day 0, 100 ppm MIT vs no MIT, 50 mg/mL BSA): −1.1% | Sarcosine Oxidase Enzyme Absorbance, MEAN of 1-5 ([2]; Day 0, 100 ppm MIT, 5 mg/mL BSA): 1.39 | Sarcosine Oxidase Enzyme Absorbance, MEAN of 1-5 ([2]; Day 0, 100 ppm MIT, 25 mg/mL BSA): 1.37 | Sarcosine Oxidase Enzyme Absorbance, MEAN of 1-5 ([2]; Day 0, 100 ppm MIT, 50 mg/mL BSA): 1.37 | Sarcosine Oxidase Enzyme Absorbance, MEAN of 7-11 [2, 11]: 0.10 | Sarcosine Oxidase Enzyme Absorbance, replicates 7-11 [2, 11]: 0.251 and 0.247 and 0.255 and 0.261 and 0.267 | Sarcosine Oxidase Enzyme Absorbance, MEAN of 7-11 [2, 12]: 0.79 | Sarcosine Oxidase Enzyme Absorbance, replicates 7-11 [2, 12]: 0.933 and 0.941 and 0.967 and 0.963 | Sarcosine Oxidase Enzyme Absorbance, MEAN of 7-11 [2, 13]: 1.22 | Sarcosine Oxidase Enzyme Absorbance, replicates 7-11 [2, 13]: 1.388 and 1.399 and 1.382 and 1.357 and 1.362 | Sarcosine Oxidase Enzyme Absorbance, MEAN of 7-11 [2, 14]: 1.23 | Sarcosine Oxidase Enzyme Absorbance, replicates 7-11 [2, 14]: 1.366 and 1.381 and 1.402 and 1.382 and 1.388 | Sarcosine Oxidase Enzyme Absorbance, MEAN of 7-11 [2, 15]: 1.24 | Sarcosine Oxidase Enzyme Absorbance, replicates 7-11 [2, 15]: 1.386 and 1.428 and 1.403 and 1.415 and 1.372 | Sarcosine Oxidase Enzyme Absorbance, MEAN of 7-11 [2, 16]: 1.24 | Sarcosine Oxidase Enzyme Absorbance, replicates 7-11 [2, 16]: 1.384 and 1.407 and 1.4 and 1.389 and 1.388 | % Bias ([2]; Day 4, 50 ppm MIT vs no MIT, 5 mg/mL BSA): 775.9% | % Bias ([2]; Day 4, 50 ppm MIT vs no MIT, 25 mg/mL BSA): 11.9% | % Bias ([2]; Day 4, 50 ppm MIT vs no MIT, 50 mg/mL BSA): 12.4% | Sarcosine Oxidase Enzyme Absorbance, MEAN of 1-5 ([2]; Day 4, 50 ppm MIT, 5 mg/mL BSA): 0.86 | Sarcosine Oxidase Enzyme Absorbance, MEAN of 1-5 ([2]; Day 4, 50 ppm MIT, 25 mg/mL BSA): 1.37 | Sarcosine Oxidase Enzyme Absorbance, MEAN of 1-5 ([2]; Day 4, 50 ppm MIT, 50 mg/mL BSA): 1.40 | % Bias ([2]; Day 4, 100 ppm MIT vs no MIT, 5 mg/mL BSA): 16.5% | % Bias ([2]; Day 4, 100 ppm MIT vs no MIT, 25 mg/mL BSA): 10.4% | % Bias ([2]; Day 4, 100 ppm MIT vs no MIT, 50 mg/mL BSA): 11.1% | Sarcosine Oxidase Enzyme Absorbance, MEAN of 1-5 ([2]; Day 4, 100 ppm MIT, 5 mg/mL BSA): 0.92 | Sarcosine Oxidase Enzyme Absorbance, MEAN of 1-5 ([2]; Day 4, 100 ppm MIT, 25 mg/mL BSA): 1.35 | Sarcosine Oxidase Enzyme Absorbance, MEAN of 1-5 ([2]; Day 4, 100 ppm MIT, 50 mg/mL BSA): 1.37 | Sarcosine Oxidase Enzyme Absorbance, MEAN of 7-11 [2, 17]: 0.29 | Sarcosine Oxidase Enzyme Absorbance, replicates 7-11 [2, 17]: 0.329 and 0.33 and 0.348 and 0.327 and 0.333 | Sarcosine Oxidase Enzyme Absorbance, MEAN of 7-11 [2, 18]: 0.31 | Sarcosine Oxidase Enzyme Absorbance, replicates 7-11 [2, 18]: 0.342 and 0.353 and 0.351 and 0.382 and 0.368 | Sarcosine Oxidase Enzyme Absorbance, MEAN of 7-11 [2, 19]: 1.36 | Sarcosine Oxidase Enzyme Absorbance, replicates 7-11 [2, 19]: 1.406 and 1.41 and 1.429 and 1.404 and 1.403 | Sarcosine Oxidase Enzyme Absorbance, MEAN of 7-11 [2, 20]: 1.41 | Sarcosine Oxidase Enzyme Absorbance, replicates 7-11 [2, 20]: 1.443 and 1.445 and 1.46 and 1.471 and 1.461 | Sarcosine Oxidase Enzyme Absorbance, MEAN of 7-11 [2, 21]: 1.41 | Sarcosine Oxidase Enzyme Absorbance, replicates 7-11 [2, 21]: 1.436 and 1.456 and 1.449 and 1.465 and 1.488 | Sarcosine Oxidase Enzyme Absorbance, MEAN of 7-11 [2, 22]: 1.42 | Sarcosine Oxidase Enzyme Absorbance, replicates 7-11 [2, 22]: 1.476 and 1.446 and 1.464 and 1.474 and 1.469 | % Bias ([2]; Day 14, 50 ppm MIT vs no MIT, 5 mg/mL BSA): 0.3% | % Bias ([2]; Day 14, 50 ppm MIT vs no MIT, 25 mg/mL BSA): 1.6% | % Bias ([2]; Day 14, 50 ppm MIT vs no MIT, 50 mg/mL BSA): 0.7% | Sarcosine Oxidase Enzyme Absorbance, MEAN of 1-5 ([2]; Day 14, 50 ppm MIT, 5 mg/mL BSA): 0.29 | Sarcosine Oxidase Enzyme Absorbance, MEAN of 1-5 ([2]; Day 14, 50 ppm MIT, 25 mg/mL BSA): 1.39 | Sarcosine Oxidase Enzyme Absorbance, MEAN of 1-5 ([2]; Day 14, 50 ppm MIT, 50 mg/mL BSA): 1.42 | % Bias ([2]; Day 14, 100 ppm MIT vs no MIT, 5 mg/mL BSA): −0.8% | % Bias ([2]; Day 14, 100 ppm MIT vs no MIT, 25 mg/mL BSA): −0.1% | % Bias ([2]; Day 14, 100 ppm MIT vs no MIT, 50 mg/mL BSA): 0.2% | Sarcosine Oxidase Enzyme Absorbance, MEAN of 1-5 ([2]; Day 14, 100 ppm MIT, 5 mg/mL BSA): 0.31 | Sarcosine Oxidase Enzyme Absorbance, MEAN of 1-5 ([2]; Day 14, 100 ppm MIT, 25 mg/mL BSA): 1.41 | Sarcosine Oxidase Enzyme Absorbance, MEAN of 1-5 ([2]; Day 14, 100 ppm MIT, 50 mg/mL BSA): 1.42 | absorbance of the sarcosine oxidase enzyme compared to samples containing 0 mg/mL of BSA ([2]; days 4 and 14, 5, 25 and 50 mg/mL BSA, with MIT): increased absorbance | sarcosine oxidase absorbance, solutions 7-11 ([2]; days 4 and 14, only BSA, no MIT): increased (or at least maintained)
